Values of other authors in patent US10188693B2, “Methods for treatment of atherosclerosis” (Stealth BioTherapeutics Corp, priority 2012, dated 2019).

Experiments:
hepatitis C virus (HCV) = details: in vitro model of HCV infection (alone and with interferon); cited from earlier work
[1] = tested on: spinal cord injury in rodents; details: administered both pre- and post-injury; cited from earlier work

CC[C@H](C)C(=O)O[C@H]1C[C@@H](C)C=C2C=C[C@H](C)[C@H](CC[C@@H]3C[C@@H](O)CC(=O)O3)[C@H]21 [lovastatin]
anti-HCV effect, in words (hepatitis C virus (HCV)): anti-HCV effect

CC(C)c1c(C(=O)Nc2ccccc2)c(-c2ccccc2)c(-c2ccc(F)cc2)n1CC[C@@H](O)C[C@@H](O)CC(=O)O [atorvastatin]
anti-HCV effect, in words (hepatitis C virus (HCV)): anti-HCV effect
effect on spinal cord injury, in words [1]: promoting locomotion and tissue sparing, as well as reducing inflammation

O=C(O)C[C@H](O)C[C@H](O)/C=C/c1c(C2CC2)nc2ccccc2c1-c1ccc(F)cc1 [pitavastatin]
anti-HCV effect, in words (hepatitis C virus (HCV)): anti-HCV effect
